From patent US20260035376A1, “COMPOSITIONS AND METHODS FOR INHIBITION OF RAS” (TheRas, Inc., priority 2022, published 2026)

Experiments:
[1] = target: T1, Avi-KRAS G12D (1-169) GppNHp/RAF1 RBD-3×FLAG (52-151) (Homo sapiens, UniProt P01116, G12D); assay: Disrupting RAS-effector binding HTRF assay, Raf1 RBD-KRAS G12D-GppNHp; settings: PPI HTRF, 50 nM Avi-KRAS G12D GppNHp, compound titration 30-0.0045 μM; read-out: Raf1 RBD-KRAS G12D-GppNHp disruption
T1 construct: 50 nM Avi-KRAS G12D (1-169) GppNHp/RAF1 RBD-3×FLAG (52-151)
T1 sequence (P01116 1-169 isoform P01116-2 G12D limits assumed): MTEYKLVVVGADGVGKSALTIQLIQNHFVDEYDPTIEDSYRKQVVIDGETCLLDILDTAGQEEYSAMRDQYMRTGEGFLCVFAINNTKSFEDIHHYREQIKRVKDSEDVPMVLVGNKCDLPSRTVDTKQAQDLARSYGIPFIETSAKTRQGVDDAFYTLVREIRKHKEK

[2] = target: T2, Avi-KRAS WT (1-169) GppNHp/RAF1 RBD-3×FLAG (52-151) (Homo sapiens, UniProt P01116); assay: Disrupting RAS-effector binding HTRF assay, Raf1 RBD-KRAS WT-GppNHp; settings: PPI HTRF, 50 nM Avi-KRAS WT GppNHp, compound titration 30-0.0045 μM; read-out: Raf1 RBD-KRAS WT-GppNHp disruption
T2 construct: 50 nM Avi-KRAS WT (1-169) GppNHp/RAF1 RBD-3×FLAG (52-151)
T2 sequence (P01116 1-169 isoform P01116-2 limits assumed): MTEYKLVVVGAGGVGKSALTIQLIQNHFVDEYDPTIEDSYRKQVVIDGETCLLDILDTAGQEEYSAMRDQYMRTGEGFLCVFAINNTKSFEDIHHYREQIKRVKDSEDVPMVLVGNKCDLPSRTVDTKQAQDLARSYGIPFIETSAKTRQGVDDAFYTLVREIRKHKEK

[3] = test system: KRAS G12V protein/effector signaling in SW620 cells; assay: Cell-based pERK HTRF assay in SW620 cell; settings: Homo sapiens, SW-620, 1 h incubation
Procedure: pERK assay (Perkin Elmer) was used to determine the effectiveness of compounds in disrupting KRAS G12V protein/effector signaling in cells.
On Day 1, cells (SW620) were seeded into 96-well plates at 3×10^4 cells/well in 80 μL complete growth media (DMEM, 10% FBS).
On Day 2, cells were treated with compounds at 0.25% DMSO. The source plate was created with compounds diluted in media at 5-fold the final assay concentration. The compounds were run in a 9-point concentration curve starting at 10 μM, with a half-log dilution between concentrations. 20 μL was transferred onto the cell plates (final volume in wells was 100 μL). Plates were harvested after 1 h incubation by aspirating media and adding kit-supplied 1× supplemented lysis buffer to all wells (50 μL per well). Plates were then placed on a plate shaker and incubated at 850 rpm for an additional 30 min.
Antibody mixture solution was prepared by diluting aliquoted d2 and Eu Cryptate antibodies 1:20 in kit supplied detection buffer, and mixing the diluted antibodies solutions (1:1 v:v). Four μL of this solution was then added to a 384-well detection plate (Perkin Elmer; 6008230).
Samples were homogenized by pipetting up and down and then transferred (16 μL of cell lysates) from the 96-well cell culture plate to two wells of the HTRF 384-well detection plate containing the antibody solution. Plates were centrifuged (524 g for 1 min) and allowed to incubate between 4 and 24 h at room temperature. Maximum signal was reached after 4 h incubation time and remained stable over a period of 24 hours. Therefore, readings could be made between 4 and 24 h of incubation. Plates were centrifuged again (524 g for 1 min), then analyzed on the EnVision plate reader using the following settings: Excitation 320 nm, Bandwidth 75 nm; Emission 615 nm, Bandwidth 85 nm; Gain 100%; Flashes 100; Lag 60 μs.

[4] = target: T3, Avi-KRAS G12R (1-169) GppNHp/RAF1 RBD-3×FLAG (52-151) (Homo sapiens, UniProt P01116, G12R); assay: Disrupting RAS-effector binding HTRF assay, Raf1 RBD-KRAS G12R-GppNHp; settings: PPI HTRF, 50 nM Avi-KRAS G12R GppNHp, compound titration 30-0.0045 μM; read-out: Raf1 RBD-KRAS G12R-GppNHp disruption
T3 construct: 50 nM Avi-KRAS G12R (1-169) GppNHp/RAF1 RBD-3×FLAG (52-151)
T3 sequence (P01116 1-169 isoform P01116-2 G12R limits assumed): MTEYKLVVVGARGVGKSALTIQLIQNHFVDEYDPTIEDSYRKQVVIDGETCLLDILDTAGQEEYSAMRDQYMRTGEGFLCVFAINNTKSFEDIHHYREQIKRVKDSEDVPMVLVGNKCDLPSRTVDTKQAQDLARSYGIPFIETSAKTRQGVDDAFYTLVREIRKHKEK

[5] = target: T4, Avi-KRAS G12V (1-169) GppNHp/RAF1 RBD-3×FLAG (52-151) (Homo sapiens, UniProt P01116, G12V); assay: Disrupting RAS-effector binding HTRF assay, Raf1 RBD-KRAS G12V-GppNHp; settings: PPI HTRF, 50 nM Avi-KRAS G12V GppNHp, compound titration 30-0.0045 μM; read-out: Raf1 RBD-KRAS G12V-GppNHp disruption
T4 construct: 50 nM Avi-KRAS G12V (1-169) GppNHp/RAF1 RBD-3×FLAG (52-151)
T4 sequence (P01116 1-169 isoform P01116-2 G12V limits assumed): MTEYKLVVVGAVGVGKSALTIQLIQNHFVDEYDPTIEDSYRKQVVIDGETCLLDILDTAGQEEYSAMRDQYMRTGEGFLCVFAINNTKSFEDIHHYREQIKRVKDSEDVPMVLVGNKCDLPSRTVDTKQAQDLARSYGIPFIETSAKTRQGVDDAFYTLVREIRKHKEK

[6] = test system: KRAS G12D protein/effector signaling in GP2d cells; assay: Cell-based pERK HTRF assay in GP2d cell; settings: 1 h, 60 min incubation
Summary of the method: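 GP2d cells (DMEM, 10% FBS) exposed 60 min to a 9-point half-log compound series at 0.25% DMSO, then lysed. Phospho-ERK quantified by HTRF with d2/Eu cryptate antibodies after 4–24 h at room temperature, ex 320/em 615 nm.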

Structure (SMILES) | IC50 [1] [µM] | IC50 [2] [µM] | IC50 [3] [µM] | IC50 [4] [µM] | IC50 [5] [µM] | IC50 [6] [µM]
N#Cc1c(N)sc2c(F)ccc(-c3c(C(F)(F)F)cc4c(N5CC6CCC(C5)N6)nc(OCCC5CCOCC5)nc4c3F)c12 [Compound 46] | 0.1 to 1 | 1 to 10 | > 10 | > 10 | > 10 | ≤ 0.1
N#Cc1c(N)sc2c(F)ccc(-c3c(C(F)(F)F)cc4c(N5CC6CCC(C5)N6)nc(OCC5CCCO5)nc4c3F)c12 (stereo not drawn) [Compound 45] | 0.1 to 1 | 1 to 10 | > 10 | 1 to 10 | 1 to 10 | ≤ 0.1
COCCCOc1nc(N2CC3CCC(C2)N3)c2cc(C(F)(F)F)c(-c3ccc(F)c4sc(N)c(C#N)c34)c(F)c2n1 [Compound 36] | 0.1 to 1 | 1 to 10 | > 10 | > 10 | > 10 | ≤ 0.1
CN(c1nc(OCC2CCOCC2)nc2c(F)c(-c3ccc(F)c4sc(N)c(C#N)c34)c(C(F)(F)F)cc12)[C@H]1CCCNC1 [Compound 63] | > 10 | > 10 | > 10 | > 10 | > 10 | > 1
N#CCCOc1nc(N2CC3CCC(C2)N3)c2cc(C(F)(F)F)c(-c3ccc(F)c4sc(N)c(C#N)c34)c(F)c2n1 [Compound 44] | 1 to 10 | 1 to 10 | > 10 | > 10 | > 10 | ≤ 0.1
N#Cc1c(N)sc2c(F)ccc(-c3c(C(F)(F)F)cc4c(N5CC6CCC(C5)N6)nc(OCCc5cnoc5)nc4c3F)c12 [Compound 65] | 0.1 to 1 | 1 to 10 | > 10 | > 10 | > 10 | ≤ 0.1
N#Cc1c(N)sc2c(F)ccc(-c3c(C(F)(F)F)cc4c(N5CC6CCC(C5)N6)nc(OCC5CC6CCC(C5)O6)nc4c3F)c12 (stereo not drawn) [Compound 52] | 1 to 10 | 1 to 10 | > 10 | > 10 | > 10 | ≤ 0.1
N#Cc1c(N)sc2c(F)ccc(-c3c(C(F)(F)F)cc4c(N5CC6CCC(C5)N6)nc(OCCc5ccon5)nc4c3F)c12 [Compound 42] | 0.1 to 1 | 1 to 10 | > 10 | 1 to 10 | > 10 | ≤ 0.1
N#Cc1c(N)sc2c(F)ccc(-c3c(C(F)(F)F)cc4c(N5C[C@H]6CC[C@@H](C5)N6)nc(OCC5CCOCC5)nc4c3F)c12 [Compound 37, 4-(4-((1R,5S)-3,8-diazabicyclo[3.2.1]octan-3-yl)-8-fluoro-2-((tetrahydro-2H-pyran-4-yl)methoxy)-6-(trifluoromethyl)quinazolin-7-yl)-2-amino-7-fluorobenzo[b]thiophene-3-carbonitrile] | 0.1 to 1 | 1 to 10 | > 10 | > 10 | > 10 | ≤ 0.1
N#Cc1c(N)sc2c(F)ccc(-c3c(C(F)(F)F)cc4c(N5CC6CCC(C5)N6)nc(OCCCO)nc4c3F)c12 [Compound 31] | 0.1 to 1 | 1 to 10 | > 10 | > 10 | > 10 | ≤ 0.1
N#Cc1c(N)sc2c(F)ccc(-c3c(C(F)(F)F)cc4c(N5CC6CCC(C5)N6)nc(OCCCCO)nc4c3F)c12 [Compound 41] | 0.1 to 1 | 1 to 10 | > 10 | > 10 | > 10 | ≤ 0.1
CN1C(=O)CC[C@H]1COc1nc(N2CC3CCC(C2)N3)c2cc(C(F)(F)F)c(-c3ccc(F)c4sc(N)c(C#N)c34)c(F)c2n1 [Compound 54] | 0.1 to 1 | 1 to 10 | > 10 | > 10 | > 10 | ≤ 0.1
N#Cc1c(N)sc2c(F)ccc(-c3c(C(F)(F)F)cc4c(N5CC6CCC(C5)N6)nc(OCC5CCOC5)nc4c3F)c12 (stereo not drawn) [Compound 47] | 0.1 to 1 | 1 to 10 | > 10 | > 10 | > 10 | ≤ 0.1
N#Cc1c(N)sc2c(F)ccc(-c3c(C(F)(F)F)cc4c(N5CC6CCC(C5)N6)nc(OC[C@@H]5COCCO5)nc4c3F)c12 [Compound 38] | 1 to 10 | 1 to 10 | > 10 | > 10 | > 10 | ≤ 0.1
N#Cc1c(N)sc2c(F)ccc(-c3c(C(F)(F)F)cc4c(N5CC6CCC(C5)N6)nc(OC[C@H](O)CO)nc4c3F)c12 [Compound 29] | 0.1 to 1 | 1 to 10 | 1 to 10 | 1 to 10 | 1 to 10 | ≤ 0.1
